We go through 16 molecules from PubChem BioAssay (NCI).

Test systems include HCT-15 colon; HOP-92 NSCLC; HT29 colon; MOLT-4 leukemia; NCI-H23 lung; RXF 393 renal; SR leukemia; HS 578T breast; MCF7 breast; MDA-MB-231 breast.
What all share (assay): growth of human tumour cells (NCI), 48 h

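The compound was tested at five concentrations on cells cultured in 96-well plates, with a 48-hour exposure period. GI50 = concentration required for 50% inhibition of growth. TGI: concentration producing complete growth inhibition.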 Bounds are passed on as bounds.

Consider `COc1ccc(C2=NNC(=O)OC2c2ccccc2)cc1` (stereo not drawn), for which the TGI in the assay with HCT-15 colon, with HOP-92 NSCLC, in the assay on HT29 colon, in the assay with MOLT-4 leukemia, with NCI-H23 lung and with RXF 393 renal was over 100 µM throughout. Besides, the TGI with SR leukemia was over 100 µM.
In the case of `CN1C2(c3ccccc3)c3c(-c4ccccc4)sc(-c4ccccc4)c3C1(c1ccccc1)C1C(=O)N(c3ccccc3)C(=O)C12` (stereo not drawn), the TGI with HOP-92 NSCLC, in the assay with HT29 colon, with NCI-H23 lung and with RXF 393 renal was over 100 µM each time.
With `Cc1cc(N(CCC#N)S(C)(=O)=O)ccc1C=O`, the TGI with HCT-15 colon, in the assay with HT29 colon, with MOLT-4 leukemia, in the assay with NCI-H23 lung, in the assay on RXF 393 renal and in the assay on SR leukemia was over 100 µM in each case.
As for `Cn1c2c(c3ccccc31)C1CCCCC1C1C(=O)NC(=O)C21` (stereo not drawn), the TGI with HCT-15 colon was over 100 µM; in the assay with HT29 colon, over 100 µM; in the assay on MOLT-4 leukemia it was 67.5 µM; in the assay on NCI-H23 lung, over 100 µM; with RXF 393 renal it was over 100 µM; in the assay with SR leukemia, over 100 µM.
As to `COc1ccc2oc3c4c2c1CCC4CCC3=O` (stereo not drawn), the TGI in the assay with HOP-92 NSCLC, in the assay with HT29 colon, with MOLT-4 leukemia, in the assay with NCI-H23 lung, in the assay on RXF 393 renal and with SR leukemia was over 100 µM throughout.
On to `COc1cc(C(=O)/C=C/c2cc(C(=O)c3cc(OC)c(OC)c(OC)c3)ccc2OC)ccc1N`, for which the GI50 in the assay with HCT-15 colon was 0.37 µM; in the assay with HOP-92 NSCLC it was 2.94 µM; in the assay with HS 578T breast, 1.39 µM; with HT29 colon, 0.422 µM; in the assay with MCF7 breast, 0.322 µM; with MDA-MB-231 breast it was 0.713 µM. Further, the GI50 in the assay on MOLT-4 leukemia was 0.616 µM; in the assay with NCI-H23 lung, 1.42 µM. Besides, the TGI in the assay on HCT-15 colon is 2.12 µM; with HOP-92 NSCLC it was over 100 µM; in the assay on HS 578T breast, over 100 µM; in the assay with HT29 colon it was 1.56 µM; with MCF7 breast, 2.28 µM; in the assay with MDA-MB-231 breast, over 100 µM. In addition, the TGI in the assay on MOLT-4 leukemia is over 100 µM; with NCI-H23 lung it was 4.1 µM.
As for `CC(C)(C)NN=C1C(C)(C)C(=NNC(C)(C)C)C1(C)C`, the TGI with HCT-15 colon, in the assay on HOP-92 NSCLC, in the assay on HT29 colon, in the assay on MOLT-4 leukemia, with NCI-H23 lung and in the assay with RXF 393 renal was over 100 µM each time. This molecule also returned a TGI with SR leukemia of over 100 µM.
For the molecule `COc1cc(/C=C/c2cc(/C=C/c3ccc(O)c(OC)c3)n(-c3c(C)cccc3C)c(=O)n2)ccc1O`, the GI50 with HCT-15 colon was 0.442 µM; in the assay with HOP-92 NSCLC it was 2.07 µM; in the assay with HS 578T breast, 0.817 µM; with HT29 colon, 2.13 µM; in the assay on MDA-MB-231 breast, 1.76 µM; with NCI-H23 lung it was 1.25 µM. Besides, the TGI was 4.61 µM with HCT-15 colon; 5.51 µM in the assay on HOP-92 NSCLC; over 100 µM in the assay on HS 578T breast; 4.71 µM with HT29 colon; 9.95 µM with MDA-MB-231 breast; 3.98 µM in the assay on NCI-H23 lung.
On to `N/N=C1\C(=O)N(C2CCCCC2)C(=O)C1C(=O)NC1CCCCC1` (stereo not drawn), for which the TGI with HCT-15 colon, with HOP-92 NSCLC, in the assay on HT29 colon, in the assay with MOLT-4 leukemia, in the assay with NCI-H23 lung and in the assay with SR leukemia was over 100 µM throughout.
For `Cc1ccc(-c2nc(SCC(=O)O)n[nH]2)cc1`, the TGI in the assay with HCT-15 colon, in the assay on HOP-92 NSCLC, in the assay with HT29 colon, in the assay with MOLT-4 leukemia, in the assay with NCI-H23 lung and in the assay on SR leukemia was over 100 µM each time.
As to `CCOC(=O)C(=O)Nc1c(F)cc(F)cc1Br`, the TGI with HCT-15 colon, with HOP-92 NSCLC, in the assay on HT29 colon, in the assay with MOLT-4 leukemia, in the assay with NCI-H23 lung and in the assay with RXF 393 renal was over 100 µM each time. Besides, in the assay with SR leukemia, the TGI was over 100 µM.
As to `COc1ccc(/C=C2\CCCCC2=O)cc1`, the TGI in the assay with HCT-15 colon, in the assay with HT29 colon, in the assay on MOLT-4 leukemia and in the assay with NCI-H23 lung was over 100 µM each time.
For the molecule `CN(C)c1ccc(N=Cc2c([O-])ccc3ccccc23)cc1.[C-]#[O+].[C-]#[O+].[Ir]`, the GI50 is 17.2 µM in the assay with HOP-92 NSCLC; 19.2 µM with HT29 colon; 15.4 µM with MOLT-4 leukemia; 15.3 µM in the assay on NCI-H23 lung; 15.4 µM with SR leukemia. The TGI in the assay on HOP-92 NSCLC is 37.3 µM; with HT29 colon, 40.7 µM; with MOLT-4 leukemia, 95 µM; in the assay on NCI-H23 lung it was 36.8 µM; in the assay on SR leukemia, 44.1 µM.
In the case of `O=S(O)CCCCCSSCCCCSSCCCCCS(=O)O`, the TGI in the assay on HCT-15 colon, with HOP-92 NSCLC, in the assay with HT29 colon, in the assay on MOLT-4 leukemia, in the assay with NCI-H23 lung and in the assay on RXF 393 renal was over 100 µM in each case.
For the molecule `Cc1cccc(Oc2nccc(-c3c(-c4ccc(F)cc4)ncn3C3CCNCC3)n2)c1C`, the GI50 was 8.12 µM in the assay with HCT-15 colon; 8.9 µM in the assay with HS 578T breast; 4.68 µM in the assay with HT29 colon; 6.68 µM in the assay on MCF7 breast; 5.42 µM in the assay with MDA-MB-231 breast; 7.17 µM with MOLT-4 leukemia. For the same molecule, the GI50 in the assay with RXF 393 renal was 3.53 µM. The TGI in the assay with HCT-15 colon was over 25 µM; in the assay with HS 578T breast, over 16.2 µM; in the assay with HT29 colon, 10.8 µM; in the assay on MCF7 breast, over 14.4 µM; with MDA-MB-231 breast it was 13.9 µM; in the assay on MOLT-4 leukemia, 17.6 µM. In the assay with RXF 393 renal, this molecule had a TGI of 9.17 µM.
Consider `O=C(CO)CC(=O)C(=O)Nc1nc([N+](=O)[O-])cs1`, for which the TGI with HCT-15 colon, in the assay on HT29 colon, with MOLT-4 leukemia, in the assay on NCI-H23 lung, in the assay on RXF 393 renal and with SR leukemia was over 100 µM in each case.
